# Measured values reported in ChEMBL document CHEMBL4680164, “Synthesis and antimycobacterial activity of thiazolidine-2,4-dione based derivatives with halogenbenzohydrazones and pyridinecarbohydrazones substituents” (Eur J Med Chem, 2020).
# Legend:
# [1] = tested on: Mycobacterium tuberculosis; assay: Antitubercular activity against Mycobacterium tuberculosis H37Ra ATCC 25177 assessed as reduction in microbial growth after 7 days by Alamar blue assay; assay type: functional; details: H37Ra ATCC 25177, 168 h, time 7 day
# [2] = tested on: Vero; assay: Cytotoxicity against African green monkey Vero cells incubated for 24 hrs by MTT assay; assay type: cell-based; details: Chlorocebus sabaeus
# [3] = Stability of compound in acetonitrile assessed as retention time at 6.05 10^-5mol/L up to 48 hrs by HPLC-DAD method; assay type: physicochemical
# [4] = Selectivity index, ratio of IC50 for cytotoxicity against African green monkey Vero cells to MIC for antimycobacterial activity against Mycobacterium tuberculosis H37Ra ATCC 25177; assay type: toxicity, cell-based; details: read-out: Selectivity Index
# [5] = Stability of compound in acetonitrile at 6.05 10^-5mol/L after 48 hrs by HPLC-DAD method; assay type: physicochemical; details: at 60.5 µM
# [6] = Stability of compound in acetonitrile at 4.52 10^-5mol/L after 48 hrs by HPLC-DAD method; assay type: physicochemical; details: at 45.2 µM
# [7] = Stability of compound in acetonitrile assessed as retention time at 4.52 10^-5mol/L up to 48 hrs by HPLC-DAD method; assay type: physicochemical
# [8] = Stability of compound in acetonitrile assessed as retention time at 4.81 10^-5mol/L up to 48 hrs by HPLC-DAD method; assay type: physicochemical
# [9] = Stability of compound in acetonitrile at 4.81 10^-5mol/L after 48 hrs by HPLC-DAD method; assay type: physicochemical; details: at 48.1 µM
# [10] = Stability of compound in acetonitrile at 4.76 10^-5mol/L after 48 hrs by HPLC-DAD method; assay type: physicochemical; details: at 47.6 µM
# [11] = Stability of compound in acetonitrile at 6 10^-5mol/L after 48 hrs by HPLC-DAD method; assay type: physicochemical; details: at 60 µM
# [12] = Stability of compound in acetonitrile assessed as retention time at 6 10^-5mol/L up to 48 hrs by HPLC-DAD method; assay type: physicochemical
# [13] = Stability of compound in acetonitrile assessed as retention time at 4.23 10^-5mol/L up to 48 hrs by HPLC-DAD method; assay type: physicochemical
# [14] = Stability of compound in acetonitrile at 4.23 10^-5mol/L after 48 hrs by HPLC-DAD method; assay type: physicochemical; details: at 42.3 µM
# [15] = Stability of compound in acetonitrile at 6.48 10^-5mol/L after 48 hrs by HPLC-DAD method; assay type: physicochemical; details: at 64.8 µM
# [16] = Stability of compound in acetonitrile assessed as retention time at 6.48 10^-5mol/L up to 48 hrs by HPLC-DAD method; assay type: physicochemical
Compound,MIC [1],further results
O=C(CC1SC(=O)NC1=O)Oc1cccc(/C=N/NC(=O)c2cccc(Cl)c2)c1 (stereo not drawn),128 µg/mL,
O=C(CC1SC(=O)NC1=O)Oc1ccc(/C=N/NC(=O)c2cccnc2)cc1Br (stereo not drawn),512 µg/mL,
O=C(CC1SC(=O)NC1=O)Oc1ccc(/C=N/NC(=O)c2ccc(Cl)cc2Cl)cc1 (stereo not drawn),64 µg/mL,
O=C(/C=C1/SC(=O)NC1=O)Oc1ccccc1/C=N/NC(=O)c1cccc(Cl)c1,64 µg/mL,
COc1cc(/C=N/NC(=O)c2cccc(Cl)c2)ccc1OC(=O)/C=C1/SC(=O)NC1=O,128 µg/mL,
O=C(CC1SC(=O)NC1=O)Oc1cccc(/C=N/NC(=O)c2ccc(Cl)cc2Cl)c1 (stereo not drawn),128 µg/mL,
COc1cc(/C=N/NC(=O)c2ccc(Cl)cc2Cl)ccc1OC(=O)CC1SC(=O)NC1=O (stereo not drawn),128 µg/mL,
COc1cc(/C=N/NC(=O)c2cccc(Cl)c2)ccc1OC(=O)CC1SC(=O)NC1=O (stereo not drawn),128 µg/mL,
O=C(CC1SC(=O)NC1=O)Oc1ccc(/C=N/NC(=O)c2cccnc2)cc1 (stereo not drawn),512 µg/mL,
O=C(/C=C1/SC(=O)NC1=O)Oc1ccccc1/C=N/NC(=O)c1ccncc1,4 µg/mL,IC50 [2]: > 200 µg/mL; Retention_time [3]: 4.36 min; selectivity ratio [4]: > 50; Stabilty [5]: Stable
CCOc1cc(/C=N/NC(=O)c2cccnc2)ccc1OC(=O)CC1SC(=O)NC1=O (stereo not drawn),> 512 µg/mL,
O=C(/C=C1/SC(=O)NC1=O)Oc1ccc(/C=N/NC(=O)c2cccc(Cl)c2)cc1,128 µg/mL,
CCOc1cc(/C=N/NC(=O)c2ccccn2)ccc1OC(=O)CC1SC(=O)NC1=O (stereo not drawn),> 512 µg/mL,
O=C(CC1SC(=O)NC1=O)Oc1ccc(/C=N/NC(=O)c2cccc(Cl)c2)cc1 (stereo not drawn),128 µg/mL,
CCOc1cc(/C=N/NC(=O)c2ccncc2)ccc1OC(=O)CC1SC(=O)NC1=O (stereo not drawn),1 µg/mL,IC50 [2]: 50.9 µg/mL; Stabilty [6]: Stable; selectivity ratio [4]: 50.9; Retention_time [7]: 7.64 min
O=C(CC1SC(=O)NC1=O)Oc1ccc(/C=N/NC(=O)c2ccncc2)cc1Cl (stereo not drawn),1 µg/mL,IC50 [2]: 31.9 µg/mL; Retention_time [8]: 7.59 min; Stabilty [9]: Stable; selectivity ratio [4]: 31.9
O=C(/C=C1/SC(=O)NC1=O)Oc1ccccc1/C=N/NC(=O)c1ccccn1,16 µg/mL,
COc1cc(/C=N/NC(=O)c2ccncc2)ccc1OC(=O)CC1SC(=O)NC1=O (stereo not drawn),1 µg/mL,IC50 [2]: 203 µg/mL; Stabilty [10]: Stable; selectivity ratio [4]: 203
O=C(CC1SC(=O)NC1=O)Oc1ccc(/C=N/NC(=O)c2ccc(Br)cc2)cc1 (stereo not drawn),256 µg/mL,
O=C(CC1SC(=O)NC1=O)Oc1ccc(/C=N/NC(=O)c2ccc(Cl)cc2)cc1 (stereo not drawn),128 µg/mL,
O=C(/C=C1/SC(=O)NC1=O)Oc1cccc(/C=N\NC(=O)c2ccncc2)c1,1 µg/mL,IC50 [2]: 143 µg/mL; Stabilty [11]: Stable; Retention_time [12]: 4.36 min; selectivity ratio [4]: 143
O=C(CC1SC(=O)NC1=O)Oc1ccc(/C=N/NC(=O)c2ccncc2)cc1Br (stereo not drawn),1 µg/mL,IC50 [2]: 190 µg/mL; Retention_time [13]: 8.8 min; Stabilty [14]: Stable; selectivity ratio [4]: 190
O=C(CC1SC(=O)NC1=O)Oc1ccc(/C=N/NC(=O)c2cccnc2)cc1Cl (stereo not drawn),512 µg/mL,
O=C(CC1SC(=O)NC1=O)Oc1ccc(/C=N/NC(=O)c2ccncc2)cc1 (stereo not drawn),1 µg/mL,IC50 [2]: 91.7 µg/mL; Stabilty [15]: Stable; selectivity ratio [4]: 91.7; Retention_time [16]: 3.48 min
O=C(/C=C1/SC(=O)NC1=O)Oc1ccccc1/C=N/NC(=O)c1cccnc1,128 µg/mL,
CC[C@@H](CO)NCCN[C@@H](CC)CO [ETHAMBUTOL],2 µg/mL,
NNC(=O)c1ccncc1 [ISONIAZID],0.25 µg/mL,
CO[C@H]1/C=C/O[C@@]2(C)Oc3c(C)c(O)c4c(O)c(c(/C=N/N5CCN(C)CC5)c(O)c4c3C2=O)NC(=O)/C(C)=C\C=C\[C@H](C)[C@H](O)[C@@H](C)[C@@H](O)[C@@H](C)[C@H](OC(C)=O)[C@@H]1C [RIFAMPIN],0.004 µg/mL,IC50 [2]: 138 µg/mL; selectivity ratio [4]: 34400
CN[C@@H]1[C@H](O[C@H]2[C@H](O[C@H]3[C@H](O)[C@@H](O)[C@H](N=C(N)N)[C@@H](O)[C@@H]3N=C(N)N)O[C@@H](C)[C@]2(O)C=O)O[C@@H](CO)[C@H](O)[C@H]1O [STREPTOMYCIN],0.5 µg/mL,
